According to PubChem BioAssay AID743409 (Vanderbilt Specialized Chemistry Center, 2014):
“And” between values parts separate entries of the source, which are not always exact repeats. Equal entries are not always repeated. The source made the active and inactive calls. How the calls were made is not given here.

Target: Phospholipase D2 (Homo sapiens) (UniProt O14939)
Test: cellular phospholipase D2 activity inhibition – cell-based (AID 743409)
Details: cellular PLD2 isoenzyme activity, hits give high values

Sequence of Phospholipase D2 (Homo sapiens) (O14939 whole entry, looked up): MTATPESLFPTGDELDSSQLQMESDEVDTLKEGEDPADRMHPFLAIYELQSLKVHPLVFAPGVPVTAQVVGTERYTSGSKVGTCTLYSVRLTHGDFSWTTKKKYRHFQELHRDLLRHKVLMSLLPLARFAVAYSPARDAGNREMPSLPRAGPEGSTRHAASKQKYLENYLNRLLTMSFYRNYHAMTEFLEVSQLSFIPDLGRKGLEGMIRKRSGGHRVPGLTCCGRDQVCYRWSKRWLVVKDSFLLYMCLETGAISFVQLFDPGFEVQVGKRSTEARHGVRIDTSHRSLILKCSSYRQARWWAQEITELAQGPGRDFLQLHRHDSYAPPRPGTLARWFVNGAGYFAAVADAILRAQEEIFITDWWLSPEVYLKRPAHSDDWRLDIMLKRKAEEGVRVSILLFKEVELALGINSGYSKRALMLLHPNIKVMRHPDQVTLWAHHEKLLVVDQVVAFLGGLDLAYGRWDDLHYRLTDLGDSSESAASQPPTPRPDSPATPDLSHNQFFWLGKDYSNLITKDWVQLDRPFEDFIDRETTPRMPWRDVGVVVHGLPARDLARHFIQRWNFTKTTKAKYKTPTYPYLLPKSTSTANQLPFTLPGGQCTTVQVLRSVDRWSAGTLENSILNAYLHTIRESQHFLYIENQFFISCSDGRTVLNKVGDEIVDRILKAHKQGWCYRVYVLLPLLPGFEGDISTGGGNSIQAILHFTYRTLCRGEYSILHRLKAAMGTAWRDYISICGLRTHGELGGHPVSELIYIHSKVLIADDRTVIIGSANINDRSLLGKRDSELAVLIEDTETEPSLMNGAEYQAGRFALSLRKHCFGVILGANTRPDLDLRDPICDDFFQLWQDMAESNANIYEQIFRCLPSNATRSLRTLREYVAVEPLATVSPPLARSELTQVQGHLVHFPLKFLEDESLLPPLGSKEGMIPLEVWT

Row | SMILES | inhibition (at 2 µM) | inhibition (at 20 µM)
1 | O=C(NCCN1CCC2(CC1)C(=O)NCN2c1cncc(F)c1)c1ccc2ccccc2c1 | 18% (inactive) | –
2 | O=C(NCCN1CCC2(CC1)C(=O)NCN2c1cccnc1)c1cc2cc(F)ccc2[nH]1 | 12% (inactive) | –
3 | O=C(NCCN1CCC2(CC1)C(=O)NCN2Cc1cccnc1)c1cc(F)cc(F)c1 | 4% (inactive) | –
4 | Cc1cc(N2CNC(=O)C23CCN(CCNC(=O)c2ccc4ccccc4c2)CC3)ccn1 | 0% (inactive) | –
5 | O=C(NCCN1CCC2(CC1)C(=O)NCN2Cc1cccnc1)c1cccc2cccnc12 | 42% (inactive) | –
6 | O=C(NCCN1CCC2(CC1)C(=O)NCN2c1cncc(F)c1)c1ccc(Br)cc1 | 15% (inactive) | –
7 | O=C(NCCN1CCC2(CC1)C(=O)NCN2Cc1cccnc1)c1cc2ccccc2[nH]1 | 100% | –
8 | Cc1cc(C)c2cc(C(=O)NCCN3CCC4(CC3)C(=O)NCN4Cc3cccnc3)[nH]c2c1 | 35% (inactive) | –
9 | O=C(NCCN1CCC2(CC1)C(=O)NCN2Cc1cccnc1)c1cc2cccnc2[nH]1 | 19% (inactive) | –
10 | O=C(NCCN1CCC2(CC1)C(=O)NCN2c1cccnc1)c1ccc(F)c(F)c1 | 7% (inactive) | –
11 | O=C(NCCN1CCC2(CC1)C(=O)NCN2c1cncc(F)c1)c1ccc(F)c(F)c1 | 0% (inactive) | –
12 | O=C(NCCN1CCC2(CC1)C(=O)NCN2Cc1cccnc1)c1ccc(Br)cc1 | 48% (inactive) | –
13 | O=C(NCCN1CCC2(CC1)C(=O)NCN2Cc1ccccc1F)c1ccc2ccccc2c1 | – | 65% and 100%
14 | O=C(NCCN1CCC2(CC1)C(=O)NCN2Cc1cccnc1)c1cc2cc(F)ccc2[nH]1 | 100% | –
15 | O=C(NCCN1CCC2(CC1)C(=O)NCN2Cc1cccnc1)c1c[nH]c2ccccc12 | 23% (inactive) | –
16 | O=C(NCCN1CCC2(CC1)C(=O)NCN2Cc1cccnc1)c1cccc(Cl)c1 | 21% (inactive) | –
17 | O=C(NCCN1CCC2(CC1)C(=O)NCN2Cc1cccnc1)c1ccc(F)cc1 | 11% (inactive) | –
18 | O=C(NCCN1CCC2(CC1)C(=O)NCN2Cc1cccnc1)c1ccc(Cl)c(Cl)c1 | 63% (inactive) | –
19 | O=C(NCCN1CCC2(CC1)C(=O)NCN2Cc1cccnc1)c1nccc2ccccc12 | 32% (inactive) | –
20 | O=C(NCCN1CCC2(CC1)C(=O)NCN2Cc1ccccn1)c1ccc2ccccc2c1 | – | 100%
21 | O=C(NCCN1CCC2(CC1)C(=O)NCN2Cc1cccnc1)c1ccc2ccccc2c1 | 80% | 100%
22 | O=C(NCCN1CCC2(CC1)C(=O)NCN2Cc1cccnc1)c1nc(-c2ccc(F)cc2)no1 | 17% (inactive) | –
23 | Cc1ccc(S(=O)(=O)NCCN2CCC3(CC2)C(=O)NCN3Cc2cccnc2)cc1 | 10% (inactive) | –
24 | O=C(NCCN1CCC2(CC1)C(=O)NCN2c1ccnc(Cl)c1)c1ccc2ccccc2c1 | 11% (inactive) | –
25 | O=C(NCCN1CCC2(CC1)C(=O)NCN2Cc1cccnc1)c1c(F)ccc(Cl)c1F | 18% (inactive) | –
26 | O=C(NCCN1CCC2(CC1)C(=O)NCN2c1cccnc1)c1ccc2ccccc2c1 | 0% (inactive) | –

Row | SMILES | inhibition (at 2 µM) | inhibition (at 20 µM)
27 | O=C(NCCN1CCC2(CC1)C(=O)NCN2Cc1cccc(Cl)c1)c1ccc2ccccc2c1 | – | 100%
28 | O=C(NCCN1CCC2(CC1)C(=O)NCN2c1ccc(C(F)(F)F)nc1)c1ccc2ccccc2c1 | 4% (inactive) | –
29 | O=C(NCCN1CCC2(CC1)NCNC2=O)c1ccc2ccccc2c1 | – | 22% (inactive)
30 | Cn1cc(C(=O)NCCN2CCC3(CC2)C(=O)NCN3Cc2cccnc2)c2ccccc21 | 31% (inactive) | –
31 | O=C(NCCN1CCC2(CC1)C(=O)NCN2Cc1cccnc1)c1ccc(F)c(F)c1 | 22% (inactive) | –
32 | O=C(NCCN1CCC2(CC1)C(=O)NCN2Cc1cccnc1)c1sc2ncccc2c1-n1cccc1 | 5% (inactive) | –
33 | O=C(NCCN1CCC2(CC1)C(=O)NCN2Cc1cccnc1)c1cccc(F)c1 | 14% (inactive) | –
34 | O=C(NCCN1CCC2(CC1)C(=O)NCN2Cc1cccc(OC(F)(F)F)c1)c1ccc2ccccc2c1 | – | 46% (inactive)
35 | O=C(NCCN1CCC2(CC1)C(=O)NCN2Cc1ccncc1)c1ccc2ccccc2c1 | – | 100%
36 | O=C(NCCN1CCC2(CC1)C(=O)NCN2c1ccnc(F)c1)c1ccc2ccccc2c1 | 15% (inactive) | –
37 | O=C(NCCN1CCC2(CC1)C(=O)NCN2c1cccnc1)c1cc(F)c(F)c(F)c1 | 0% (inactive) | –
38 | O=C(NCCN1CCC2(CC1)C(=O)NCN2C(=O)c1ccccc1)c1ccc2ccccc2c1 | – | 82%
39 | O=C(NCCN1CCC2(CC1)C(=O)NCN2Cc1cccnc1)c1cc2ccccc2o1 | 73% | –
40 | O=C(NCCN1CCC2(CC1)C(=O)NCN2C(=O)c1cccc(F)c1)c1ccc2ccccc2c1 | – | 84%
41 | O=C(NCCN1CCC2(CC1)C(=O)NCN2c1cncc(F)c1)c1cc(F)c(F)c(F)c1 | 2% (inactive) | –
42 | O=C(NCCN1CCC2(CC1)C(=O)NCN2Cc1cccnc1)c1ccc(F)cc1C(F)(F)F | 0% (inactive) | –
43 | O=C(NCCN1CCC2(CC1)C(=O)NCN2Cc1cccnc1)c1ccc2ccccc2c1Br | 61% | –
44 | O=C(NCCN1CCC2(CC1)C(=O)NCN2c1cccnc1)c1ccc(F)cc1 | 2% (inactive) | –
45 | O=C(NCCN1CCC2(CC1)C(=O)NCN2Cc1cccnc1)c1ccc2cc(F)ccc2c1 | 36% (inactive) | –
46 | O=C(NCCN1CCC2(CC1)C(=O)NCN2Cc1ccc(Cl)cc1)c1ccc2ccccc2c1 | – | 96%
47 | O=C(NCCN1CCC2(CC1)C(=O)NCN2Cc1cccc2ccccc12)c1ccc2ccccc2c1 | – | 100%
48 | O=C(NCCN1CCC2(CC1)C(=O)NCN2Cc1cccnc1)c1ccc(C(F)(F)F)cc1 | 5% (inactive) | –
49 | O=C(NCCN1CCC2(CC1)C(=O)NCN2c1cncc(F)c1)c1ccc(F)cc1 | 3% (inactive) | –
50 | O=C(NCCN1CCC2(CC1)C(=O)NCN2Cc1ccccc1Cl)c1ccc2ccccc2c1 | – | 100%
51 | O=C(NCCN1CCC2(CC1)C(=O)NCN2Cc1ccccc1Br)c1ccc2ccccc2c1 | – | 100%
52 | O=C(NCCN1CCC2(CC1)C(=O)NCN2Cc1cccnc1)c1c(Cl)cncc1Cl | 3% (inactive) | –

Row | SMILES | inhibition (at 2 µM) | inhibition (at 20 µM)
53 | O=C(NCCN1CCC2(CC1)C(=O)NCN2Cc1cccnc1)[C@@H]1C[C@H]1c1ccccc1 | 20% (inactive) | –
54 | O=C(NCCN1CCC2(CC1)C(=O)NCN2Cc1cccnc1)c1cc(F)c(F)c(F)c1 | 10% (inactive) | –
55 | O=C(NCCN1CCC2(CC1)C(=O)NCN2Cc1cccnc1)c1ccnc2ccccc12 | 0% (inactive) | –
56 | O=C(NCCN1CCC2(CC1)C(=O)NCN2Cc1cccnc1)c1ccc(F)cc1F | 0% (inactive) | –
57 | O=C(NCCN1CCC2(CC1)C(=O)NCN2Cc1cccnc1)c1cccs1 | 0% | –
58 | O=C(NCCN1CCC2(CC1)C(=O)NCN2Cc1cccnc1)c1ccc(Cl)cc1Cl | 0% (inactive) | –
59 | O=C(NCCN1C=CC2(CC1)C(=O)NCN2Cc1cccnc1)c1cccc2nsnc12 (centres undefined) | 4% (inactive) | –
60 | O=C(NCCN1CCC2(CC1)C(=O)NCN2Cc1cccnc1)c1ccc2ccccc2n1 | 31% (inactive) | –
61 | O=C(NCCN1CCC2(CC1)C(=O)NCN2Cc1cccnc1)c1cccc(C(F)(F)F)c1 | 0% (inactive) | –
62 | O=C(NCCN1CCC2(CC1)C(=O)NCN2CC1CC1)c1ccc2ccccc2c1 | – | 100%
63 | O=C(NCCN1CCC2(CC1)C(=O)NCN2c1cncc(Br)c1)c1ccc2ccccc2c1 | 26% (inactive) | –
64 | O=C(NCCN1CCC2(CC1)C(=O)NCN2Cc1ccccc1)c1ccc2ccccc2c1 | – | 99%
65 | COc1cccc(C(=O)N2CNC(=O)C23CCN(CCNC(=O)c2ccc4ccccc4c2)CC3)c1 | – | 85%
66 | O=C(NCCN1CCC2(CC1)C(=O)NCN2c1cccnc1)c1ccc(Br)cc1 | 0% (inactive) | –
67 | Cc1nc2sc(C(=O)NCCN3CCC4(CC3)C(=O)NCN4Cc3cccnc3)c(N)c2c(C)c1C | 8% (inactive) | –
68 | Cn1c(C(=O)NCCN2CCC3(CC2)C(=O)NCN3Cc2cccnc2)cc2ccccc21 | 14% (inactive) | –
69 | O=C(NCCN1CCC2(CC1)C(=O)NCN2C(=O)C1CC1)c1ccc2ccccc2c1 | – | 100%
70 | O=C(NCCN1CCC2(CC1)C(=O)NCN2Cc1cccnc1)c1ccccc1F | 0% (inactive) | –
71 | O=C(NCCN1CCC2(CC1)C(=O)NCN2c1cncc(F)c1)c1cc2cc(F)ccc2[nH]1 | 15% (inactive) | –
72 | O=C(NCCN1CCC2(CC1)C(=O)NCN2Cc1cccnc1)c1ccc(Cl)cc1F | 18% (inactive) | –
73 | COc1cc(C(=O)NCCN2CCC3(CC2)C(=O)NCN3Cc2cccnc2)cc(OC)c1OC | 15% (inactive) | –
74 | O=C(NCCN1CCC2(CC1)C(=O)NCN2Cc1cccnc1)c1ccc(SC(F)(F)F)cc1 | 8% (inactive) | –
75 | O=C(NCCN1CCC2(CC1)C(=O)NCN2C(=O)C1CCC1)c1ccc2ccccc2c1 | – | 100%
76 | Cc1cc(Br)cnc1C(=O)NCCN1CCC2(CC1)C(=O)NCN2Cc1cccnc1 | 1% (inactive) | –
77 | O=C(NCCN1CCC2(CC1)C(=O)NCN2Cc1cccnc1)c1ccc2c(c1)C(=O)NC2=O | 0% (inactive) | –
78 | O=C(NCCN1CCC2(CC1)C(=O)NCN2Cc1cccnc1)c1ccc(F)cc1Cl | 0% (inactive) | –
